Experimental data from patent EP1082333B1, “THIOCO[…], PREPARATION AND THERAPEUTIC APPLICATION” (SANOFI-SYNTHELABO, priority 1998, dated 1999).

Tested on: réflexe polysynaptique
Test: Inhibition of the polysynaptic reflex in the normal rat (RPRN), EMG of biceps femoris
Format: in vivo
Conditions: 10 mg/kg, voie i.p
Excerpt: L'activité décontraccurante du composé de l'invention a été déterminée par l'inhibition du réflexe polysynaptique chez le rat normal (RPRN). L'animal est placé en contention en décubitus ventral. Les membres postérieurs sont immobilisés. Les réflexes polysynaptiques sont évoqués dans le muscle Biceps fémoral (fléchisseur de la cuisse) par stimulation électrique de la voûte plantaire (territoire cutané du nerf sural). L'EMG (Electro-Myo-Graphie) est recueilli par deux électrodes en acier inoxydable insérées dans le muscle parallélement aux fibres.
Les électrodes de stimulation en acier inoxydable sont insérées en position sous-cutanée. La stimulation consiste en un choc électrique carré de 0.2-0.4 ms de durée et de 0.2 Hz de fréquence. L'intensité de la stimulation est réglée pour obtenir des réflexes bien constitués et de surface stable (8-12 mA).
L'EMG est amplifié. La surface de chaque réflexe est mesurée.
Des séries de 20 réflexes sont enregistrées toutes les 15 minutes. La surface des 20 réflexes de chaque série est moyennée.
Après plusieurs séries contrôles, le produit à étudier est administré. La moyenne des 20 premières réponses contrôles est prise pour 100 %. L'évolution des réponses EMG est suivie alors pendant 2 ou 3 heures.

COc1c(OC2OC(C(=O)O)C(O)C(O)C2O)cc2c(c1OC)-c1ccc(SC)c(=O)cc1C(NC(C)=O)CC2 (stereo not shown) [composé de l'invention]
inhibe le réflexe polysynaptique: 78%
